Like-named read-outs stand apart in the source and are kept apart here. One block for each molecule: values may come before it.
Legend:
CDK2/Cyclin A = CDK2/Cyclin A (Homo sapiens, UniProt P24941); assay: Inhibition of CDK2/Cyclin A Retinoblastoma Kinase Activity; type: biochemical; settings: for CDK2 % Inhibition At 0.03 μM: Table 2; for Ki: apparent Ki, CDK2/proteolyzed cyclin A, Rb fragment substrate, 25 μM ATP
Summary of the method: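 Baculovirus-expressed CDK2 complexed with proteolyzed cyclin A (10 or 19 nM), Rb fragment substrate, 25 μM [32P/33P]ATP, HEPES pH 7.4, 30 °C for 60 or 75 min under initial-rate conditions. Filter capture and phosphorimager readout; apparent Ki fitted to competitive or tight-binding competitive inhibition.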

[1] = biological target: human CDK4 and genetically truncated (1-264) cyclin D3 (Homo sapiens, UniProt P11802); assay: Inhibition of CDK4/Cyclin D Retinoblastoma Kinase Activity; type: biochemical; settings: for Ki: apparent Ki, CDK4/truncated cyclin D3, Rb fragment substrate, 25 μM ATP
Summary of the method: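 Human CDK4/truncated cyclin D3 (1-264) complex from baculovirus-infected insect cells, 5 nM, phosphorylating Rb fragment (residues 386-928, His-tagged) with 25 μM [32/33P]ATP in HEPES pH 7.4, MgCl2, 2% DMSO at 30° C. for 20 min (60 min for tight binders). Filter-captured radioactivity by phosphorimager; apparent Ki from competitive or tight-binding fits.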

HCT-116 cell line = assay: Inhibition of cell growth, tetrazolium salt (MTT) assay; type: cell-based; settings: for HCT-116 % Inhibition at 0.25 μM: 0.25 μM compound; for IC50: Homo sapiens, HCT-116, 120 h, MTT, three to five days, read-out: HCT-116 IC50
Summary of the method: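 MTT colorimetric viability: three-to-five-day compound exposure in 0.5% (v/v) DMSO at 37° C, MTT 0.2 mg/mL for the last 4 h, A540 compared with vehicle-treated cells.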

[2] = 0.1 μM compound, HCT-116, Table 3

human CDK4 and genetically truncated (1-264) cyclin D3, sequence (P11802 whole entry, the tested form may be a part): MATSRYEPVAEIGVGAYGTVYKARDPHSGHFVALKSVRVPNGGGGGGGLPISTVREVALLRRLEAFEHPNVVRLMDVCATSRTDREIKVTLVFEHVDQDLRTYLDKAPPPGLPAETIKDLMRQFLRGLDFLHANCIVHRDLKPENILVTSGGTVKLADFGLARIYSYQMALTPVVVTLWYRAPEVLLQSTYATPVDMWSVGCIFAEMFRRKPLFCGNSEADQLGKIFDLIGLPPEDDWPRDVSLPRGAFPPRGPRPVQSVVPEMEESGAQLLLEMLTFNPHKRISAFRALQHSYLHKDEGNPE
human CDK4 and genetically truncated (1-264) cyclin D3, sequence (P30281 1-264 partner): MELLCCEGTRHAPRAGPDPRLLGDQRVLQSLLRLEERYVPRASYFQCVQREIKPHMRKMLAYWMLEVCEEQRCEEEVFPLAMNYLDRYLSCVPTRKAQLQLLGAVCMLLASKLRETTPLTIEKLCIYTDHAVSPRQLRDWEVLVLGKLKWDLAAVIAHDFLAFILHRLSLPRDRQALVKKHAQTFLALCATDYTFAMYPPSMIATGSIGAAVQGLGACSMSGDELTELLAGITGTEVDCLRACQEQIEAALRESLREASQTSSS

SMILES: Nc1nc(NC2CCN(C(=O)c3cc(Cl)ccc3O)CC2)sc1C(=O)c1c(F)cccc1F [Example R120]
CDK2 % Inhibition at 0.03 μM (CDK2/Cyclin A; at 0.03 μM): 18%
CDK4 % Inhibition at 0.03 μM ([1]; at 0.03 μM): 4%
HCT-116 % Inhibition at 0.1 μM (HCT-116 cell line; HCT-116 cells, at 0.1 μM): 0%
HCT-116 5 Inhibition at 0.25 μM (HCT-116 cell line; HCT-116 cells): 47

SMILES: CCOC(=O)CCNC(=O)N1CCC(Nc2nc(N)c(C(=O)c3c(F)cccc3F)s2)CC1 [Example O73]
CDK2 % Inhibition At 0.03 μM (CDK2/Cyclin A; 0.03 μM compound): 29%
CDK4 % Inhibition at 0.03 μM ([1]; 0.03 μM compound, Table 2): 4%
HCT-116 % Inhibition at 0.25 μM (HCT-116 cell line; HCT-116, Table 2): 42%

SMILES: Nc1nc(NC2CCN(C(=O)Cc3cccs3)CC2)sc1C(=O)c1c(F)cccc1F [Example Q65]
CDK2 % Inhibition at 0.03 μM (CDK2/Cyclin A; 0.03 μM compound, Table 4): 39%
CDK4 % Inhibition at 0.03 μM ([1]; 0.03 μM compound, Table 4): 31%
HCT-116 % Inhibition at 0.1 μM (HCT-116 cell line; 0.1 μM compound, HCT-116, Table 4): 3%
HCT-116 % Inhibition at 0.25 μM (HCT-116 cell line; HCT-116, Table 4): 27%

SMILES: Cc1ccc(C(=O)N2CCC(Nc3nc(N)c(C(=O)c4c(F)cccc4F)s3)CC2)cc1C [Example R141]
CDK2 % Inhibition at 0.03 μM (CDK2/Cyclin A; at 0.03 μM): 68%
CDK4 % Inhibition at 0.03 μM ([1]; at 0.03 μM): 82%
HCT-116 % Inhibition at 0.1 μM (HCT-116 cell line; HCT-116 cells, at 0.1 μM): 33%
HCT-116 5 Inhibition at 0.25 μM (HCT-116 cell line; HCT-116 cells): 77

SMILES: Nc1nc(NC2CCN(S(=O)(=O)CCN3CC=CC3)CC2)sc1C(=O)c1c(F)cccc1F [Example K36, (4-Amino-2-{1-[2-(2,5-dihydro-pyrrol-1-yl)-ethanesulfonyl]-piperidin-4-ylamino}-thiazol-5-yl)-(2,6-difluoro-phenyl)-methanone.]
Ki (CDK2/Cyclin A): 7.5 nM
Ki [1]: 6.6 nM
IC50 (HCT-116 cell line; first HCT-116 column (c4)): 650 nM
IC50 (HCT-116 cell line; second HCT-116 column (c5)): 1900 nM

SMILES: Nc1nc(NC2CCN(C(=O)Nc3ccccc3Cl)CC2)sc1C(=O)c1c(F)cccc1F [Example O6]
CDK2 % Inhibition At 0.03 μM (CDK2/Cyclin A; 0.03 μM compound): 36%
CDK4 % Inhibition at 0.03 μM ([1]; 0.03 μM compound, Table 2): 10%
HCT-116 % Inhibition at 0.25 μM (HCT-116 cell line; HCT-116, Table 2): 12%

Continued, in another order:

Ki (CDK2/Cyclin A): 0.8 nM
Ki [1]: 2.5 nM
IC50 (HCT-116 cell line; first HCT-116 column (c4)): 190 nM
IC50 (HCT-116 cell line; second HCT-116 column (c5)): 460 nM
SMILES: COc1ccc(S(=O)(=O)N2CCC(Nc3nc(N)c(C(=O)c4c(F)cccc4F)s3)CC2)cc1 [Example F7, 1-{4-Amino-2-[1-(4-methoxy-benzenesulfonyl)-piperidin-4-ylamino]-thiazol-5-yl}-1-(2,6-difluoro-phenyl)-methanone]

CDK2 % Inhibition At 0.03 μM (CDK2/Cyclin A; 0.03 μM compound): 34%
CDK4 % Inhibition at 0.03 μM ([1]; 0.03 μM compound, Table 2): 21%
SMILES: Cc1ccc(NC(=O)N2CCC(Nc3nc(N)c(C(=O)c4c(F)cccc4F)s3)CC2)cc1 [Example O24]
HCT-116 % Inhibition at 0.25 μM (HCT-116 cell line; HCT-116, Table 2): 6%

CDK2 % Inhibition at 0.03 μM (CDK2/Cyclin A; 0.03 μM compound, Table 3): 23%
CDK4 % Inhibition at 0.03 μM ([1]; 0.03 μM compound, Table 3): 32%
SMILES: Nc1nc(NC2CCN(S(=O)(=O)c3ccc(C(=O)O)cc3)CC2)sc1C(=O)c1c(F)cccc1F [Example P21]
HCT-116 % Inhibition at 0.1 μM (HCT-116 cell line; [2]): 19%
HCT-116 % Inhibition at 0.25 μM (HCT-116 cell line; HCT-116, Table 3): 29%

Ki (CDK2/Cyclin A): 7.6 nM
inhibition at 0.05 µM [1]: 37%
IC50 (HCT-116 cell line; first HCT-116 column (c4)): 3200 nM
IC50 (HCT-116 cell line; second HCT-116 column (c5)): 5000 nM
SMILES: Cn1cc(S(=O)(=O)N2CCC(Nc3nc(N)c(C(=O)c4c(F)cccc4F)s3)CC2)nc1Br [Example F48, {4-Amino-2-[1-(2-bromo-1-methyl-1H-imidazole-4-sulfonyl)-piperidin-4-ylamino]-thiazol-5-yl}-(2,6-difluoro-phenyl)-methanone]

Ki (CDK2/Cyclin A): 1.4 nM
Ki [1]: 0.94 nM
IC50 (HCT-116 cell line; first HCT-116 column (c4)): 1500 nM
IC50 (HCT-116 cell line; second HCT-116 column (c5)): 5000 nM
SMILES: Nc1nc(NC2CCN(S(=O)(=O)c3ccc(N4CC[S+]([O-])CC4)nc3)CC2)sc1C(=O)c1c(F)cccc1F [Example G4, 1-(4-Amino-2-{1-[6-(1-oxo-thiomorpholine-4-yl)-pyridine-3-sulfonyl]-piperidin-4-ylamino}-thiazol-5-yl)-1-(2,6-difluoro-phenyl)-methanone]

CDK2 % Inhibition at 0.03 μM (CDK2/Cyclin A; 0.03 μM compound, Table 3): 5%
CDK4 % Inhibition at 0.03 μM ([1]; 0.03 μM compound, Table 3): 24%
SMILES: CC(C)S(=O)(=O)N1CCC(Nc2nc(N)c(C(=O)c3c(F)cccc3F)s2)CC1 [Example P24]
HCT-116 % Inhibition at 0.1 μM (HCT-116 cell line; [2]): 26%
HCT-116 % Inhibition at 0.25 μM (HCT-116 cell line; HCT-116, Table 3): 36%

Reference: US20050101595A1, “N-containing cycloalkyl-substituted amino-thiazole derivatives and pharmaceutical compositions for inhibiting cell proliferation and methods for their use” (PFIZER INC., priority 2003, published 2005)
